Where “and” joins values, the source holds several entries; their conditions need not be identical. Equal values may be shown once.
Tests used:
[1] = biological target: T1, Tyrosine-protein kinase Mer (Homo sapiens) (UniProt Q12866); conditions: at 10 µM
T1 sequence (whole entry): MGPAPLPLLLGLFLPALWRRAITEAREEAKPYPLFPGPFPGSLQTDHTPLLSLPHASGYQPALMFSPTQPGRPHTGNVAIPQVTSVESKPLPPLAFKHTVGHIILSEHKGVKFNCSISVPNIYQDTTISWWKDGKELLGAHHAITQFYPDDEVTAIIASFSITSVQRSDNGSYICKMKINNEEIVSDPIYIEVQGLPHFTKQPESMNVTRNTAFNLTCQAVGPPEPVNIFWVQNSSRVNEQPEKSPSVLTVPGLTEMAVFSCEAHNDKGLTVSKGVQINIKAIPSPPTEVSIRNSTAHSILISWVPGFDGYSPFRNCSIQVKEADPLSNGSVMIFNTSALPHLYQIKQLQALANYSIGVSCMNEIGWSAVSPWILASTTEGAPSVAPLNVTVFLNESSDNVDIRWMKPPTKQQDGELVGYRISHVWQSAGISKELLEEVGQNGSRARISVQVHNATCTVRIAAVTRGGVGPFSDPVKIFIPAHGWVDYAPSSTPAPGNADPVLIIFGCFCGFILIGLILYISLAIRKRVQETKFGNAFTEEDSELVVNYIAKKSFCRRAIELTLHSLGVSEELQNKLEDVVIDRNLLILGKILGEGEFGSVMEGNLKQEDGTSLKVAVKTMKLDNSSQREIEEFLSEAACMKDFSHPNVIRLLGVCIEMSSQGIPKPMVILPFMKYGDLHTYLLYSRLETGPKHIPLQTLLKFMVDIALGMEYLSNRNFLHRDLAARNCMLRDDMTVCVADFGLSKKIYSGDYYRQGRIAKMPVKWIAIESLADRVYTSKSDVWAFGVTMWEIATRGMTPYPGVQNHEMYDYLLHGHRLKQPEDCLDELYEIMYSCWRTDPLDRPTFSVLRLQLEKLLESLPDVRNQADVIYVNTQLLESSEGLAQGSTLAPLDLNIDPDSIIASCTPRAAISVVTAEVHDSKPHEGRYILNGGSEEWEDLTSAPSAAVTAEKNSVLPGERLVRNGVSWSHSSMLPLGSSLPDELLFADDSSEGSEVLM

[2] = biological target: T2, Serine/threonine-protein kinase TBK1 (Homo sapiens) (UniProt Q9UHD2); conditions: at 1 µM
T2 sequence (whole entry): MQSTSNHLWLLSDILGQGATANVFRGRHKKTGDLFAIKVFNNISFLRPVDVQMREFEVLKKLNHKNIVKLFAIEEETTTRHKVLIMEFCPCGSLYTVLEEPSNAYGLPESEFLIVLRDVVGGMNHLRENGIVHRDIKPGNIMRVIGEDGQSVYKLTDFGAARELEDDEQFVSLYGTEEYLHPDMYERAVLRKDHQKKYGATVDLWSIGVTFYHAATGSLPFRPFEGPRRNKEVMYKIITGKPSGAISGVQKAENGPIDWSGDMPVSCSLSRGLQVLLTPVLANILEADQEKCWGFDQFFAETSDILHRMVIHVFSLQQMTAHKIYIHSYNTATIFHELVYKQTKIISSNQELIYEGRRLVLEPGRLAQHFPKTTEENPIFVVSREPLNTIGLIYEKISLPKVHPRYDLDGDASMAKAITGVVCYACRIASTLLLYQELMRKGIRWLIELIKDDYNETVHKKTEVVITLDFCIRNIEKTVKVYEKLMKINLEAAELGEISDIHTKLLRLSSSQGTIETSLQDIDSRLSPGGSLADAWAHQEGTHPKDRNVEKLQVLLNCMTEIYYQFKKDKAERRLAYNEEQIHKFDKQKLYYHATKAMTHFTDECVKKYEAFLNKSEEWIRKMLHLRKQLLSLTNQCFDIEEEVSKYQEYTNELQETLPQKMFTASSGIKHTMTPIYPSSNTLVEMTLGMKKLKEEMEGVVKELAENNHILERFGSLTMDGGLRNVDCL

[3] = biological target: T3, Inhibitor of nuclear factor kappa-B kinase subunit alpha (Homo sapiens) (UniProt O15111); conditions: at 1 µM
T3 sequence (whole entry): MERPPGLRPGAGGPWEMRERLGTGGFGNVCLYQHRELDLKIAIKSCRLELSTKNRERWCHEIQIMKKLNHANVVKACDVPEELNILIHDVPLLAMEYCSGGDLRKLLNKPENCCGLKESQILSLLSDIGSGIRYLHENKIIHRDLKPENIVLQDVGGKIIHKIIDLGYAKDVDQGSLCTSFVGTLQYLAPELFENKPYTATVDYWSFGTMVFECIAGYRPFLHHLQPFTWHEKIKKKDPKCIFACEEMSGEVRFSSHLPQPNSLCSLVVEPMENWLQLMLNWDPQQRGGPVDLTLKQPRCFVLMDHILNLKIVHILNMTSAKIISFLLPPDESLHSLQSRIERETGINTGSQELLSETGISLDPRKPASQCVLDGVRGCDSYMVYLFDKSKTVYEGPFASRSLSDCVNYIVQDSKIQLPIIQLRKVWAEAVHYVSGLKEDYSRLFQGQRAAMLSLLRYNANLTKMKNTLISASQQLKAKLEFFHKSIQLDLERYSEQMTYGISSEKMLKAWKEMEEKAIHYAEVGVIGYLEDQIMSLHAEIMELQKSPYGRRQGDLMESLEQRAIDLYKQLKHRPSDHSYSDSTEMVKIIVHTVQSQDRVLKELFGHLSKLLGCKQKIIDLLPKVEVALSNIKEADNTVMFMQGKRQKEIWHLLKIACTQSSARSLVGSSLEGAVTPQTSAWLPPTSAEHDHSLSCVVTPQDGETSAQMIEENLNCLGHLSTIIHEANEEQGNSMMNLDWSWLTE

SMILES | inhibition [1] | inhibition [2] | inhibition [3]
COc1ccc(-c2cc(-c3c[nH]nc3-c3ccccn3)ccn2)cc1 | -5% | -4% and -2% | 6%
CC(=O)Nc1cccc(C#Cc2cncnc2Nc2ccc(OCc3cccc(F)c3)c(Cl)c2)n1 | 1% | 3% and 0% | 2%
Nc1ncnc2occ(-c3ccc(NC(=O)Nc4cc(C(F)(F)F)cc(C(F)(F)F)c4)cc3)c12 | 2% | -3% and -6% | 4% and 1%
COc1cc2ncnc(Nc3ccc4c(cnn4Cc4ccccc4)c3)c2cc1OC | 5% | 5% and 2% | 2% and -2%
COc1ccc(-c2nn3ncccc3c2-c2ccnc(Nc3ccc4c(c3)OCCO4)n2)cc1 | 0% | 1% and 0% | 1%
CCn1c(-c2nonc2N)nc2c(C#CC(C)(C)O)ncc(OCC3CCNCC3)c21 | 3% | 55% and 59% | 9% and 3%
COC(=O)Nc1nc2cc(Oc3ccc(NC(=O)Nc4ccccc4)cc3)ccc2[nH]1 | 100% | 8% | -1% and -2%
NS(=O)(=O)c1ccc(N/N=C2\C(=O)Nc3ccc(Cl)cc32)cc1 | 2% | 5% and 4% | 2%
CN(c1ccc(NC(=O)Nc2c(Cl)cccc2Cl)cc1)c1ccnc(Nc2cccc(CS(C)(=O)=O)c2)n1 | -4% | 19% and 17% | 0% and 6%
CCn1c(-c2nonc2N)nc2c(C#CC(C)(C)O)ncc(OC3CCNCC3)c21 | -5% | 55% and 57% | 9% and 5%
CN(c1ccc(NC(=O)Nc2ccc(OC(F)(F)F)cc2)cc1)c1ccnc(Nc2cccc(S(N)(=O)=O)c2)n1 | -1% | 18% | 2% and 3%
NCc1ccc(-c2nc(-c3ccc(Cl)c(O)c3)c(-c3ccncc3)[nH]2)cc1 | 0% | 14% and 16% | -3% and -4%
CCn1c(-c2nonc2N)nc2ccccc21 | 59% | -2% and -3% | 24%
COc1ccc(Nc2ncc(-c3ccccc3)o2)cc1OC | 0% | 8% and 20% | 1%
COc1cc2ncn(-c3cc(OCc4ccccc4S(C)(=O)=O)c(C#N)s3)c2cc1OC | 2% | 103% and 101% | 1% and 2%
COc1ccc(-c2oc3ncnc(N)c3c2-c2ccc(NC(=O)Nc3cc(C(F)(F)F)ccc3F)cc2)cc1 | -2% | -3% and -1% | 2% and 1%
NC(=O)c1sc(-n2cnc3cc(C(F)(F)F)ccc32)cc1OCc1ccccc1Br | 6% | 3% and 6% | 1% and 3%
Cc1cc(Cl)cc2c1NC(=O)C2=NNc1ccc(S(N)(=O)=O)cc1 | 63% | 29% and 26% | 11%
c1ccc(Oc2ccc(Nc3ncc(-c4ccccc4)o3)cc2)cc1 | 27% | -5% and -4% | 1% and 2%
FC(F)(F)CNc1nccc(-c2cnn3ncccc23)n1 | 1% | -2% and -4% | 2% and 7%
COc1ccc2cc(-c3c(-c4ccncc4)nc(-c4ccc([S+](C)[O-])cc4)n3C)ccc2c1 (stereo not given) | 77% | -3% and 0% | 4% and 3%
Nc1nccc(C#Cc2cncnc2Nc2ccc(OCc3cccc(F)c3)c(Cl)c2)n1 | 13% | 18% and 9% | 2% and 0%
COc1cc2ncn(-c3cc(OCc4ccccc4C(F)(F)F)c(C(C)=O)s3)c2cc1OC | -1% | -3% and -2% | 5% and 4%
CN(C)CCCn1c(-c2nonc2N)nc2cnccc21 | 23% | 1% and 0% | 8% and 10%
COc1ccc(COc2ccc(Cc3cnc(N)nc3N)cc2OC)cc1 | 5% | -3% and -2% | 2%
CN(C)C(=O)O[C@@H]1CN[C@@H](C#Cc2cc3ncnc(Nc4ccc(OCc5cccc(F)c5)c(Cl)c4)c3s2)C1 | 8% | 12% and 7% | 2% and 1%
c1ccc(Cc2nc3ccc(Nc4ncnc5ccccc45)cc3[nH]2)cc1 | 4% | -5% and -7% | -3% and 1%
COc1cc(Nc2ncc(-c3ccccc3)o2)cc(OC)c1 | -9% | 0% and 3% | 1%

Second part, the compound after the results:

inhibition [1] | inhibition [2] | inhibition [3] | SMILES
0% | 3% and 2% | -5% and -4% | Fc1ccc(-c2ncn(C3CCNCC3)c2-c2ccnc(Oc3ccc(Oc4ccccc4)cc3)n2)cc1
3% | -2% and -3% | 0% and -1% | Cc1ccc(-c2cc3c(NC(=O)C4CC4)ncnc3o2)cc1
0% | -1% and -3% | 2% and 3% | COc1cc(N2CCN(C(C)C)CC2)ccc1Nc1nc(Nc2ccc(F)cc2C(=O)NC[C@@H](O)CO)c2cc[nH]c2n1
-4% | 7% and 3% | 0% and -4% | CN1CCN(Cc2ccc(-c3cc4ncnc(Nc5ccc(OCc6cccc(F)c6)c(Cl)c5)c4s3)o2)CC1
11% | -3% and 0% | -1% and 2% | NS(=O)(=O)c1ccc(-c2ccc3c(NC(=O)C4CC4)n[nH]c3c2)cc1
6% | 1% and -2% | 5% | Cc1ccc(O)cc1Nc1ccnc2ccc(S(C)(=O)=O)cc12
67% | 23% and 19% | 3% and 4% | COc1cc2c(cc1Nc1nc(Nc3ccsc3C(N)=O)c3cc[nH]c3n1)N(C(=O)CN(C)C)CCC2
1% | 40% and 43% | 16% and 2% | O=C1Nc2ccc(-c3cccnc3)cc2C1=Cc1cc(Br)c(O)c(Br)c1
67% | 7% and 0% | 16% and 1% | [O-][S+]1CCN(Cc2ccc(-c3ccc4ncnc(Nc5ccc(OCc6cccc(F)c6)c(Cl)c5)c4c3)o2)CC1
-7% | 4% and 2% | -3% and -6% | CNC(=O)c1cc(-c2ccc(F)cc2)cc(-c2ccc(S(=O)(=O)N3CCCC3)cc2)c1N
15% and 7% | 3% [middle of 4 runs] | 1% and 3% and 4% | CN1CCC(C(=O)Nc2n[nH]c3nc(-c4ccc(O)cc4)c(Br)cc23)CC1
-4% | -1% and -2% | 3% and 4% | Cc1nnc(-c2cccc(-c3ccc(C(=O)NCC4CC4)cc3)c2)o1
